Measurements published in patent US20220389007A1, “INHIBITORS OF HUMAN IMMUNODEFICIENCY VIRUS REPLICATION” (VIIV HEALTHCARE UK (No. 5) LIMITED, priority 2019, published 2022).

Experiments:
recombinant NL4-3 virus = experiment: HIV cell culture assay (antiviral activity, luciferase readout); type: cell-based; details: Human immunodeficiency virus 1, NL43, MT2, MT-2 cells infected for 4-5 days with recombinant NL4-3 virus carrying Renilla luciferase
Description: HIV cell culture assay—MT-2 cells, 293T cells and the proviral DNA clone of NL4-3 virus were obtained from the NIH AIDS Research and Reference Reagent Program. MT-2 cells were propagated in RPMI 1640 media supplemented with 10% heat inactivated fetal bovine serum (FBS), […]. The 293T cells were propagated in DMEM media supplemented with 10% heat inactivated FBS, […]. A recombinant NL4-3 proviral clone, in which a section of the nef gene was replaced with the Renilla luciferase gene, was used to make the reference virus used in these studies. The recombinant virus was prepared through transfection of the recombinant NL4-3 proviral clone into 293T cells using Transit-293 Transfection Reagent from Mirus Bio LLC (Madison, WI). Supernatent was harvested after 2-3 days and the amount of virus present was titered in MT-2 cells using luciferase enzyme activity as a marker by measuring luciferase enzyme activity. Luciferase was quantitated using the EnduRen Live Cell Substrate from Promega (Madison, Wis.). Antiviral activities of compounds toward the recombinant virus were quantified by measuring luciferase activity in MT-2 cells infected for 4-5 days with the recombinant virus in the presence of serial dilutions of the compound.
The 50% effective concentration (EC50) was calculated by using the exponential form of the median effect equation where (Fa)=1/[1+(ED50/drug conc.)m] (Johnson VA, Byington RT. Infectivity Assay. In Techniques in HIV Research. ed. Aldovini A, Walker BD. 71-76. New York: Stockton Press. 1990). The 50% inhibitory concentration (EC50) was calculated by using the exponential form of the median effect equation where percent inhibition=1/[1+(EC50/drug concentration)m], where m is a parameter that reflects the slope of the concentration-response curve.

[1] = Compound cytotoxicity, XTT-based colorimetric assay; type: cell-based; details: human; uninfected MT2 cells, day 4, XTT assay
Description: Compound cytotoxicity and the corresponding CC50 values were determined using the same protocol as described in the antiviral assay except that uninfected cells were used. Cytotoxicity was assessed on day 4 in uninfected MT2 cells by using a XTT (2,3-bis[2-Methoxy-4-nitro-5-sulfophenyl]-2H-tetrazolium-5-carboxyanilide inner salt)-based colorimetric assay (Sigma-Aldrich, St Louis, Mo.).

Row | Structure (SMILES) | EC50 (recombinant NL4-3 virus) [nM] | CC50 at 4 day [1] [nM]
1 | Cn1nc(NS(C)(=O)=O)c2c(Cl)ccc(-n3c([C@H](Cc4cc(F)cc(F)c4)NC(=O)Cn4nc(C(F)F)c5c4C(F)(F)[C@@H]4C[C@H]54)nc4nc(-c5ccccc5C(F)(F)F)ccc4c3=O)c21 (atropisomer, axis not shown; (P)) [Example 25, N-((S)-1-((3P)-3-(4-chloro-1-methyl-3-(methylsulfonamido)-1H-indazol-7-yl)-4-oxo-7-(2-(trifluoromethyl)phenyl)-3,4-dihydropyrido[2,3-d]pyrimidin-2-yl)-2-(3,5-difluorophenyl)ethyl)-2-((3bS,4aR)-3-(difluoromethyl)-5,5-difluoro-3b,4,4a,5-tetrahydro-1H-cyclopropa[3,4]cyclopenta[1,2-c]pyrazol-1-yl)acetamide] | 0.06 | > 100
2 | CCC(F)(F)Cn1ccc(-c2ccc3c(=O)n(-c4ccc(Cl)c5c(NS(C)(=O)=O)nn(C)c45)c([C@H](Cc4cc(F)cc(F)c4)NC(=O)Cn4nc(C(F)F)c5c4C(F)(F)[C@@H]4C[C@H]54)nc3n2)n1 (atropisomer, axis not shown; (P)) [Example 86, N-((S)-1-((3P)-3-(4-chloro-1-methyl-3-(methylsulfonamido)-1H-indazol-7-yl)-7-(1-(2,2-difluorobutyl)-1H-pyrazol-3-yl)-4-oxo-3,4-dihydropyrido[2,3-d]pyrimidin-2-yl)-2-(3,5-difluorophenyl)ethyl)-2-((3bS,4aR)-3-(difluoromethyl)-5,5-difluoro-3b,4,4a,5-tetrahydro-1H-cyclopropa[3,4]cyclopenta[1,2-c]pyrazol-1-yl)acetamide] | 0.084 | > 100
3 | Cn1nc(NS(C)(=O)=O)c2c(Cl)ccc(-n3c([C@H](Cc4cc(F)cc(F)c4)NC(=O)Cn4nc(C(F)F)c5c4C(F)(F)[C@@H]4C[C@H]54)nc4nc(-c5cc(C(F)(F)F)[nH]n5)ccc4c3=O)c21 (atropisomer, axis not shown; (P)) [Example 90, N-((S)-1-((3P)-3-(4-chloro-1-methyl-3-(methylsulfonamido)-1H-indazol-7-yl)-4-oxo-7-(5-(trifluoromethyl)-1H-pyrazol-3-yl)-3,4-dihydropyrido[2,3-d]pyrimidin-2-yl)-2-(3,5-difluorophenyl)ethyl)-2-((3bS,4aR)-3-(difluoromethyl)-5,5-difluoro-3b,4,4a,5-tetrahydro-1H-cyclopropa[3,4]cyclopenta[1,2-c]pyrazol-1-yl)acetamide] | 0.098 | > 100
4 | Cn1nc(NS(C)(=O)=O)c2c(Cl)ccc(-n3c([C@H](Cc4cc(F)cc(F)c4)NC(=O)Cn4nc(C(F)F)c5c4C(F)(F)[C@@H]4C[C@H]54)nc4ncc(-c5cccc(C(F)F)n5)cc4c3=O)c21 (atropisomer, axis not shown; (P)) [Example 3, N-((S)-1-((3P)-3-(4-chloro-1-methyl-3-(methylsulfonamido)-1H-indazol-7-yl)-6-(6-(difluoromethyl)pyridin-2-yl)-4-oxo-3,4-dihydropyrido[2,3-d]pyrimidin-2-yl)-2-(3,5-difluorophenyl)ethyl)-2-((3bS,4aR)-3-(difluoromethyl)-5,5-difluoro-3b,4,4a,5-tetrahydro-1H-cyclopropa[3,4]cyclopenta[1,2-c]pyrazol-1-yl)acetamide] | 0.051 | > 100
5 | Cn1nc(NS(C)(=O)=O)c2c(Cl)ccc(-n3c([C@H](Cc4cc(F)cc(F)c4)NC(=O)Cn4nc(C(F)F)c5c4C(F)(F)[C@@H]4C[C@H]54)nc4nc(-c5cccc(OC(F)F)c5)ccc4c3=O)c21 (atropisomer, axis not shown; (P)) [Example 20, N-((S)-1-((3P)-3-(4-chloro-1-methyl-3-(methylsulfonamido)-1H-indazol-7-yl)-7-(3-(difluoromethoxy)phenyl)-4-oxo-3,4-dihydropyrido[2,3-d]pyrimidin-2-yl)-2-(3,5-difluorophenyl)ethyl)-2-((3bS,4aR)-3-(difluoromethyl)-5,5-difluoro-3b,4,4a,5-tetrahydro-1H-cyclopropa[3,4]cyclopenta[1,2-c]pyrazol-1-yl)acetamide] | 0.2 | > 100
6 | COc1cncc(-c2ccc3c(=O)n(-c4ccc(Cl)c5c(NS(C)(=O)=O)nn(C)c45)c([C@H](Cc4cc(F)cc(F)c4)NC(=O)Cn4nc(C(F)F)c5c4C(F)(F)[C@@H]4C[C@H]54)nc3n2)n1 (atropisomer, axis not shown; (P)) [Example 54, N-((S)-1-((3P)-3-(4-chloro-1-methyl-3-(methylsulfonamido)-1H-indazol-7-yl)-7-(6-methoxypyrazin-2-yl)-4-oxo-3,4-dihydropyrido[2,3-d]pyrimidin-2-yl)-2-(3,5-difluorophenyl)ethyl)-2-((3bS,4aR)-3-(difluoromethyl)-5,5-difluoro-3b,4,4a,5-tetrahydro-1H-cyclopropa[3,4]cyclopenta[1,2-c]pyrazol-1-yl)acetamide] | 0.039 | > 100
7 | Cn1nc(NS(C)(=O)=O)c2c(Cl)ccc(-n3c([C@H](Cc4cc(F)cc(F)c4)NC(=O)Cn4nc(C(F)F)c5c4C(F)(F)[C@@H]4C[C@H]54)nc4nc(-c5ccc6ocnc6c5)ccc4c3=O)c21 (atropisomer, axis not shown; (P)) [Example 81, N-((S)-1-(7-(benzo[d]oxazol-5-yl)-(3P)-3-(4-chloro-1-methyl-3-(methylsulfonamido)-1H-indazol-7-yl)-4-oxo-3,4-dihydropyrido[2,3-d]pyrimidin-2-yl)-2-(3,5-difluorophenyl)ethyl)-2-((3bS,4aR)-3-(difluoromethyl)-5,5-difluoro-3b,4,4a,5-tetrahydro-1H-cyclopropa[3,4]cyclopenta[1,2-c]pyrazol-1-yl)acetamide] | 0.082 | > 100
8 | Cn1nc(NS(C)(=O)=O)c2c(Cl)ccc(-n3c([C@H](Cc4cc(F)cc(F)c4)NC(=O)Cn4nc(C(F)F)c5c4C(F)(F)[C@@H]4C[C@H]54)nc4nc(-c5cccc(C(F)(F)F)c5)ccc4c3=O)c21 (atropisomer, axis not shown; (P)) [Example 24, N-((S)-1-((3P)-3-(4-chloro-1-methyl-3-(methylsulfonamido)-1H-indazol-7-yl)-4-oxo-7-(3-(trifluoromethyl)phenyl)-3,4-dihydropyrido[2,3-d]pyrimidin-2-yl)-2-(3,5-difluorophenyl)ethyl)-2-((3bS,4aR)-3-(difluoromethyl)-5,5-difluoro-3b,4,4a,5-tetrahydro-1H-cyclopropa[3,4]cyclopenta[1,2-c]pyrazol-1-yl)acetamide] | 0.16 | > 100
9 | Cn1nc(NS(C)(=O)=O)c2c(Cl)ccc(-n3c([C@H](Cc4cc(F)cc(F)c4)NC(=O)Cn4nc(C(F)F)c5c4C(F)(F)[C@@H]4C[C@H]54)nc4nc(-c5ccncn5)ccc4c3=O)c21 (atropisomer, axis not shown; (P)) [Example 28, N-((S)-1-((3P)-3-(4-chloro-1-methyl-3-(methylsulfonamido)-1H-indazol-7-yl)-4-oxo-7-(pyrimidin-4-yl)-3,4-dihydropyrido[2,3-d]pyrimidin-2-yl)-2-(3,5-difluorophenyl)ethyl)-2-((3bS,4aR)-3-(difluoromethyl)-5,5-difluoro-3b,4,4a,5-tetrahydro-1H-cyclopropa[3,4]cyclopenta[1,2-c]pyrazol-1-yl)acetamide] | 0.04 | > 100
